In paper PMC7487564 (Cell Communication and Signaling : CCS, 2020):
pKd: −log10 of the molar value.

Legend:
[1] = molecular target: T1, PVR (Homo sapiens, UniProt P15151); experiment: Biolayer interferometry-based (BLI) binding assay; details: for pKd: read-out: KD to PVR protein (BLI)
T1 construct: purchased ACRO Biosystem CD5-H82E3
T1 sequence (P15151 21-417): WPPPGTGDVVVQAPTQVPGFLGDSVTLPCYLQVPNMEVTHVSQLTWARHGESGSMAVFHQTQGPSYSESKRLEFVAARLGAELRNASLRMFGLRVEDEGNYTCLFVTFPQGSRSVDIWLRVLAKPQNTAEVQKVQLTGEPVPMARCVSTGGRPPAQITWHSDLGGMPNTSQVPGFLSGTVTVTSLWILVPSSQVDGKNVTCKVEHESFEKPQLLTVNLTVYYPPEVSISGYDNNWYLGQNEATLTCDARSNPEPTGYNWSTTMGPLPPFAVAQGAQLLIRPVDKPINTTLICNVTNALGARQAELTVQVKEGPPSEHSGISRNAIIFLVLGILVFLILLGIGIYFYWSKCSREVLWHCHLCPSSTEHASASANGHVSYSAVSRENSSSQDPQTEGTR
Description: BLI experiments were performed in PBS supplemented with 0.1% (w/v) BSA, 0.002% (v/v) Tween 20 and 1% DMSO, with an Octet RED96 instrument (FortéBio), operating at 25 °C. The biotinylated PVR carrying a C-terminal AVITAG (CD5-H82E3, ACRO Biosystem) was loaded to saturation onto Super Streptavidin (SSA) biosensors (Pall/FortéBio), and blocked with 200 μL biotin (5 μg/mL) for 60 s. Before the assay, the PVR-labeled SSA sensors were pre-soaked in binding buffer for 30 min. The twenty-two small molecule compounds were preliminary screened for binding to PVR at a single concentration of 100 μM. […] The dissociation was monitored by washing the ligand biosensors from the analyte solution to binding buffer for 60 s. Double reference-subtracted sensorgrams were analyzed using Data Analysis 9.0 (Pall/Forte Bio), and binding responses at the end of the association phase were reported.

[2] = molecular target: T2, human TIGIT/PVR (Homo sapiens, UniProt P15151); experiment: Cell based blocking assay, CHOK1-hTIGIT cells and human PVR-Fc; details: CHOK1-hTIGIT cells, highest concentration
T2 construct: purchased ACRO Biosystem CD5-H82F6; host or cells: PVR-Fc was purchased; TIGIT was expressed on CHO-K1 cells by lentiviral infection (CHOK1-hTIGIT)
T2 sequence (P15151 28-343 limits assumed): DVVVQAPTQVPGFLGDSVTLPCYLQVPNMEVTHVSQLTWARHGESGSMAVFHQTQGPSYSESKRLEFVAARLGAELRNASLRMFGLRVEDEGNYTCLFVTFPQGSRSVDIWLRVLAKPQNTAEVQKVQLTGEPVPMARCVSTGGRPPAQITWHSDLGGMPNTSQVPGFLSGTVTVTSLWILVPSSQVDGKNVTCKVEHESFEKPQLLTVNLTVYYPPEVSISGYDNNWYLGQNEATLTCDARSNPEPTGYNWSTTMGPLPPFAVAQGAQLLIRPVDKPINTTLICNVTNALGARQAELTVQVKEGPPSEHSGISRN
Description: Cell based blocking assay was performed according to the previous report [30]. […] Then the mixture of PVR protein and compounds were incubated with CHOK1-TIGIT cells for another 30 min, followed by incubation with detection antibody anti-human IgG-PE (eBioscience) for 30 min. Cells were then washed with FACS buffer to remove the unbound fluorescent antibodies, acquired on a FACS Caliber™ (BD Biosciences) and analyzed by FlowJo. […] Cells incubated with corresponding Fc tagged protein and anti-human IgG-PE served as positive control, while cells only incubated with anti-human Fc-PE served as negative control. The mean fluorescent intensity (MFI) was recorded for calculating the blocking efficiency as the formula: Blocking%=MFIof positive control−MFIof tested compounds/MFIof positive control×100%.

[3] = system: MC38 tumor; experiment: Anti-tumor experiment and ex vivo assays, MC38 tumor-bearing mice; assay type: in vivo, C57BL/6 mice
Description: All mice experimental procedures were approved by the Ethics Committee of Zhengzhou University. Six-week-old female C57BL/6 mice (Vital River Laboratories, China) were maintained in a specific pathogen-free facility. Food and water were supplied ad libitum. Mice were acclimatized for about 1 week before the experiment. C57BL/6 mice were subcutaneously (s.c.) injected on the right flank with 1 × 10^6 syngeneic MC38 cells in 200 μL PBS. One week later, tumor-bearing mice were randomized into groups of negative control (normal saline with 3% DMSO and 0.5% Tween-80), 0.5, 1.5, 5 and 15 mg/kg of compounds or anti-TIGIT and isotype control groups. Mice were treated with 200 μL control or indicated compound through intraperitoneal (i.p.) injection every other day for 2 weeks, or with 200 μg anti-TIGIT (clone:1G9, Bioxcell) or isotype control mouse IgG (I5381, Sigma) through i.p. injection every 3 days for 2 weeks. Tumor sizes were measured using a digital caliper, and tumor volumes were calculated as the formula: V=1/2×alength×bwidth×cheight
For indicated immune cell depletion models, MC38 mice were injected with 250 μg anti-CD4 (clone: GK1.5), 200 μg anti-CD8 (clone: YTS169.4) or matched rat IgG control (I4131, Sigma), 200 μg anti-NK1.1 (clone: PK136) or matched mouse IgG control (I5381, Sigma) the day before the start of tumor inoculation, as well as weekly thereafter, resulting in a total of 3 injections per mouse. The depletion efficacy was confirmed by flow cytometry analysis with the blood sample of mice treated with indicated antibodies for 6 days. Mouse anti-CD45 FITC (clone: 30-F11, eBioscience), anti CD3 PerCP-eFluor710 (clone: 17A2, eBioscience), anti-CD8α APC (clone: 53–6.7, eBioscience), anti-CD4 APC (clone: GK1.5, eBioscience) and anti-NK1.1 PE (clone: PK136, eBioscience) were used.
Upon completion of treatment, MC38 tumor-bearing mice were sacrificed, and the tumors were dissected and digested by 100 U/mL collagenase IV (Invitrogen) and 100 U/mL Dnase I (Sigma) for 60 min, and then filtered through a 70 μm nylon cell strainer to single cell suspension. The cells were incubated with mouse anti-CD45 FITC (clone: 30-F11, eBioscience), mouse anti-CD3 PerCP-eFluor710 (clone: 17A2, eBioscience), and mouse anti-CD8α APC (clone: 53–6.7, eBioscience) to detect the frequency of infiltrating CD8^+ T cells. For functional assay, the tumor-infiltrating lymphocytes were isolated from tumor cell suspension by discontinuous Percoll density gradients (40 and 70%) (GE Healthcare). The isolated tumor-infiltrating lymphocytes, splenocytes and draining lymph node cells prepared by gentle mechanical disruption were stimulated with or without 20 ng/mL phorbol 12-myristate 13-acetate (PMA, Sigma) and 1 μMionomycin (Sigma) in the presence of protein transport inhibitor for 4 h. The following procedure of intracellular cytokine staining assay was performed as mentioned above, and the antibodies for the staining were mouse anti-CD3 PerCP-eFluor710, mouse anti-CD8α PE, and mouse anti-IFN-γ APC (clone: XMG1.2, eBioscience).

[4] = Potential side effects in mice; assay type: in vivo; details: different concentrations administrated for at least one week
[5] = system: MC38 cells; experiment: Cell viability assay (MTT); assay type: cell-based, murine; details: 12.5 to 100 μM, 3 days
Description: The cytotoxic effects of indicated compound on MC38 cells were determined by MTT assay. MC38 cells were seeded into 96-well plates at a density of 3000 cells/well and allowed to grow for adhesion. Cells were treated with medium with 1% DMSO as negative control or with a series dilution of indicated compound at a concentration range of 12.5 to 100 μM. Cell viability was ascertained using MTT reagent (Sigma) dissolved in 5 mg/mL PBS and incubated at 37 °C for 4 h in the following 3 days. Formazan crystals formed by viable cells were dissolved in 150 μL DMSO in each well. MTT reduction was quantified by measuring the absorbance at 490 nm.

## O=C(O[C@@H]1Cc2c(O)cc(O)cc2O[C@@H]1c1ccc(O)c(O)c1)c1cc(O)c(O)c(O)c1 [SMC 22, Epicatechin gallate]
[1]; series of concentrations
  pKd: 5.23
[2]
  blocking efficacy of TIGIT/PVR: extremely low blocking efficacy

## COc1cc(/C=C/C(=O)CC(=O)/C=C/c2ccc(O)c(OC)c2)ccc1O [SMC 6, Curcumin]
[1]; series of concentrations
  pKd: 4.38
[2]
  blocking efficacy of TIGIT/PVR: 52%

## N[C@@H](Cc1cc(I)c(Oc2ccc(O)c(I)c2)c(I)c1)C(=O)O [SMC 14, Liothyronine]
[3]; 0.5 mg/kg i.p. every other day
  anti-tumor effects, MC38 tumor model: almost no anti-tumor effects
[3]; 5 mg/kg, MC38 model, depletion antibodies
  anti-tumor effects with CD4+, CD8+ T and NK cells depleted: almost disappeared
[3]; 15 mg/kg compared with 5 mg/kg, i.p. every other day
  anti-tumor effects, MC38 tumor model: equivalent
[3]; high dose 5 mg/kg i.p. every other day
  MC38 tumor growth: significantly inhibit
[3]; low dose 1.5 mg/kg i.p. every other day
  MC38 tumor growth: significantly inhibit
[4]
  side effects on mental state, weight and diet of the mice: no obvious effects
[5]
  cell viability of MC38 cells (MTT): did not impact the cell viability

## O=C1/C(=C2\Nc3ccccc3C2=O)Nc2ccccc21 [SMC 2, Indigo]
[1]; series of concentrations
  KD to PVR protein (BLI): could not fit a determined KD value
[1]; single concentration of 100 μM
  BLI response, primary screening: relatively good response
